# Source: paper PMC8890542, “Discovery of novel paeonol-based derivatives against skin inflammation in vitro and in vivo” (Journal of Enzyme Inhibition and Medicinal Chemistry, 2022)
# Like-named read-outs stand apart in the source and are kept apart here.
# Tests used:
# [1] = system: LPS-induced nitric oxide production in RAW264.7 cells; experiment: LPS-induced NO production, Griess Reagent assay; type: cell-based, mouse; details: for Inhibitory activity on LPS-induced NO secretion, in words: 10 µM; for IC50: LPS (0.5 μg/mL) 24 h; for Inhibition rate±SD (%) against NO production / inhibition at 10 µM: compounds 10 μM, 1 h, then LPS (0.5 μg/mL) 24 h; for inhibition at 10 µM: read-out: Inhibition rate±SD (%) against NO production
# Procedure: RAW264.7 cells (7 × 10^4 cells/well) were seeded into 48-well plate and used for experiments after 24 h. […] After 24 h collect cell supernatant, NO production was measured using Griess Reagent assay (Beyotime). Griess reagent were mixed at a ratio of 1:1, and reacted at room temperature for 15 min. Measurement of absorbance at […] with enzyme reader. At least three independent experiments were performed for the determination of IC50 values, which were shown as mean ± SD. All experimental data were analysed by using GraphPad Prism software, version 8.0 (GraphPad Inc.).
# RAW264.7 cells = experiment: Cell viability assay (MTT), RAW264.7; type: cell-based, mouse; details: 24 h, read-out: Cytotoxicity IC50 with RAW264.7
# Procedure: (§1) RAW264.7 cells (1 × 10^4 cells/well) were seeded into 96-well plate and used for experiments after 24 h. Compounds (4 µM, 20 µM and 100 µM) treated cell for 24 h. Forty microliters of MTT solution (5 mg/mL, Sigma-Aldrich) was then added and incubated for an additional 4 h. After 4 h, cell culture supernatants were removed and DMSO (150 µL) was added into per well for dissolving the resulting crystals. Shaking about 1 0 ∼ 15 min and the absorbance at 492 nm was measured by a microplate reader (MQX200, Bio-Tek, Winooski, VT). At least three independent experiments were performed for the determination of IC50 values, which were shown as mean ± SD. All experimental data were analysed by using GraphPad Prism software, version 8.0 (GraphPad Inc.).
# LO2 cells = experiment: Cell viability assay (MTT), LO2; type: cell-based; details: 24 h, read-out: Cytotoxicity IC50 with LO2
# [2] = cited from earlier work
# [3] = Cell viability assay (MTT), RAW264.7; type: cell-based, mouse; details: mouse, RAW264.7 cells, read-out: Cytotoxicity IC50 with RAW264.7
# Procedure: as §1
# [4] = Cell viability assay (MTT), LO2; type: cell-based; details: human, LO2 cells, read-out: Cytotoxicity IC50 with LO2
# [5] = Human liver microsomes stability assay in vitro; type: in vitro ADME
# Procedure: The livers were homogenised initially in a Tris (0.1 M)/KCl (0.1 M)/EDTA (1 mM)/butylated sodium hydroxytoluene (BHT) (0.02 mM) buffer. Add 1.5 µL control/test compound B12 working solution to 238.5 µL liver microsome working solution, gently mix. Pre-incubate at 37 °C for 5 min. Start the reaction by adding 60 µL NADPH working solution. Mix by pipetting up and down. At each time point: 0, 5, 15, 30 and 60 min, remove 30 µL of reaction mixture to 300 µL of quenching solution. Vortex vigorously for ∼1 min and centrifuge at 4000 rpm at 4 °C for 15 min. Remove 100 µL of the supernatant and mixed with 100 µL distilled water for LC-MS/MS analysis.
# LPS-induced HaCaT cells = experiment: Hyperproliferation assay, LPS-stimulated HaCaT cells (MTT); type: cell-based, human; details: pre-treated 6 h, LPS 24 h
# Procedure: HaCaT cells were seeded in 96-well plates and cultured at 37 °C in a humidified 5% CO2 atmosphere. When the cell confluency reached 60–70%, HaCaT cells were then starved in serum-free DMEM for 12 h before stimulated by 100 ng/mL LPS for 24 h to mimic hyperproliferative psoriatic keratinocytes. The cell viability was measured by MTT method. Results are expressed as the percentage survival of cells in the cell treated group and the untreated control group (without the tested compound and LPS).
# TOPK [6] = target: T1, TOPK (Homo sapiens, UniProt Q96KB5); design: method as in PMID 28404919; details: time- and dose-dependent, in vitro and in vivo; cited from earlier work
# T1 construct: endogenous in cells
# T1 sequence (Q96KB5 1-322): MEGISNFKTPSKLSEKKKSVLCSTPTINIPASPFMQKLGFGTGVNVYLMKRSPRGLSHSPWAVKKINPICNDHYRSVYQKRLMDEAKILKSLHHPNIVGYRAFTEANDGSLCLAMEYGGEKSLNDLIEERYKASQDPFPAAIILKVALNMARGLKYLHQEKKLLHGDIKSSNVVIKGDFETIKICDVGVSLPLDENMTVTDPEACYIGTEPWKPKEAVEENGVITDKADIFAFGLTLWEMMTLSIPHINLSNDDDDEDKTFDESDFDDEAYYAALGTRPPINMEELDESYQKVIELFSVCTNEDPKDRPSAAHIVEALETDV
# TOPK [7] = target: T1, TOPK; design: method as in PMID 17276892; details: 100 µM; cited from earlier work
# TOPK [8] = target: T1, TOPK; design: method as in earlier work; details: ref 16/17; cited from earlier work
# [9] = system: IMQ-induced psoriasis mouse model; experiment: IMQ-induced psoriasis-like skin inflammation mouse model; type: in vivo, BALB/c mice; details: intragastric once a day, 7 days
# From the text: During treatment for 7 days, to score the severity of inflammation of mouse skin, an objective scoring system was developed based on the clinical psoriasis area and severity index. Erythema, scaling, and thickening were scored independently from 0 to 4 as follows: 0, none; 1, slight; 2, moderate; 3, marked; 4, very marked and weight loss. The cumulative score (erythema plus scaling plus thickening) served to indicate the severity of inflammation (scale 0 ∼ 12). On the 8th day, the mice were taken eyeball blood and back skin. One-half of the samples were immediately fixed in 4% paraformaldehyde and for haematoxylin and eosin (H&E) staining. The other samples were put in a −80 °C freezer. Before used, they were placed at room temperature for 30 min. After that, they were added 1 × PBS proportionally, homogenised and centrifuged. The supernatant was collected and used for ELISA assay and Western blot assay. […] The histological image was obtained using 3[sequence]’s Slide Converter (3[sequence], Hungary).
Molecule,IC50 [1] [µM],Inhibition rate±SD (%) against NO production [1] [%],IC50 (RAW264.7 cells) [µM],IC50 (LO2 cells) [µM],IC50 ([1]; Mus musculus) [µM],inhibition at 10 µM ([1]; Mus musculus) [%],IC50 at 24 h [3] [µM],IC50 at 24 h [4] [µM],melting point [°C],other results
1–(5-acetyl-2-methoxyphenyl)-3–(2-fluorophenyl) urea [Compound B7],> 10,15.69±4.15,> 100,> 100,–,–,–,–,–,"Inhibitory activity on LPS-induced NO secretion, in words [1]: weak to moderate inhibitory activity"
1–(5-acetyl-2-methoxyphenyl)-3–(4-fluorobenzyl) urea [Compound C4],> 10,45.23±3.25,> 100,> 100,–,–,–,–,–,–
1–(5-acetyl-2-methoxyphenyl)-3–(4-fluorophenyl) urea [Compound B6],> 10,24.15±6.18,> 100,> 100,–,–,–,–,–,"Inhibitory activity on LPS-induced NO secretion, in words [1]: moderate inhibitory activity"
1–(5-acetyl-2-methoxyphenyl)-3–(4-methoxyphenyl) urea [Compound B10],> 10,5.03± 6.25,> 100,> 100,–,–,–,–,–,"Inhibitory activity on LPS-induced NO secretion, in words [1]: moderate inhibitory activity"
1–(5-acetyl-2-methoxyphenyl)-3–(4-methylbenzyl) urea [Compound C3],> 10,30.23±4.56,> 100,> 100,–,–,–,–,–,–
COc1cc(O)c(C(C)=O)cc1[N+](=O)[O-] [Compound 1],–,–,–,–,–,–,–,–,–,Anti-inflammatory activity ([2]; reported by Huang): strong anti-inflammatory activity
COc1cc(O)c(C(C)=O)cc1N [Compound 2],–,–,–,–,–,–,–,–,–,Anti-inflammatory activity ([2]; reported by Huang): strong anti-inflammatory activity
COc1ccc(C(C)=O)c(Oc2ccc(NC(=O)/C=C/c3cc(OC)c(OC)c(OC)c3)cc2)c1 [Compound 3],–,–,–,–,–,–,–,–,–,Anti-inflammatory activity [2]: suitable anti-inflammatory activity
"COc1cc(O)c(C(C)=O)cc1NC(=O)NCc1ccccc1 [Compound C2, 1–(5-acetyl-4-hydroxy-2-methoxyphenyl)-3-benzylurea]",–,–,–,–,> 10,7.86 ± 2.19,> 100,> 100,194 to 195,–
"COc1ccc(CNC(=O)Nc2cc(C(C)=O)c(O)cc2OC)cc1 [Compound C5, 1–(5-acetyl-4-hydroxy-2-methoxyphenyl)-3–(4-methoxybenzyl) urea]",–,–,–,–,> 10,6.25 ± 5.16,> 100,> 100,233 to 234,–
"COc1cc(O)c(C(C)=O)cc1NC(=O)NCc1ccco1 [Compound C7, 1–(5-acetyl-4-hydroxy-2-methoxyphenyl)-3-(furan-2-ylmethyl) urea]",–,–,–,–,> 10,26.2 ± 5.13,> 100,> 100,231 to 232,–
"COc1cc(O)c(C(C)=O)cc1NC(=O)NCCc1ccc(F)cc1 [Compound D2, 1–(5-acetyl-4-hydroxy-2-methoxyphenyl)-3–(4-fluorophenethyl) urea]",–,–,–,–,> 10,30.2 ± 3.98,> 100,> 100,224 to 225,–
"COc1ccc(CCNC(=O)Nc2cc(C(C)=O)c(O)cc2OC)cc1 [Compound D3, 1–(5-acetyl-4-hydroxy-2-methoxyphenyl)-3–(4-methoxyphenethyl) urea]",–,–,–,–,> 10,33.3 ± 3.18,> 100,> 100,180 to 181,–
"COc1ccc2c(c1)[C@]13CCCC[C@@H]1[C@H](C2)N(C)CC3 [Dextromethorphan, reference compound]",–,–,–,–,–,–,–,–,–,CLhep ([5]; human): 13.7 mL/min/kg; T1/2 ([5]; human liver microsomes): 39.5 min; microsomal CLint ([5]; human liver microsomes): 35.1 µL/min/mg
"COc1ccc(C(C)=O)c(O)c1 [Pae, paeonol]",–,–,–,–,> 10,18.4 ± 1.84,> 100,> 100,–,"Excessive proliferation of LPS-induced HaCaT cells (LPS-induced HaCaT cells): did not have this effect; Phosphorylation levels of p38, JNKs, MSK1 and histone H2AX (TOPK [6]): suppressed; Inhibitory activity on LPS-induced NO secretion, in words [1]: weak potencies; Expression of TOPK (TOPK [7]): inhibit the expression of TOPK; Affinity for TOPK (MST) (TOPK [8]): confirmed the affinity of paeonol for TOPK"
"C[C@@H]1C[C@H]2[C@@H]3CCC4=CC(=O)C=C[C@]4(C)[C@@]3(F)[C@@H](O)C[C@]2(C)[C@@]1(O)C(=O)CO [dexamethasone, reference compound]",–,–,–,–,–,–,–,–,–,"Pathological reduction, H&E of skin tissue ([9]; 20 mg/kg): high pathological reduction; Experimental symptoms and PASI score ([9]; B12 20 and 40 mg/kg, Dex 20 mg/kg): significantly attenuated experimental symptoms and PASI score"
